Measurements as given in patent publication US20220315631A1, “STAPLED BETA-CATENIN LIGANDS” (Ohio State Innovation Foundation, priority 2019, published 2022).
Starred links: 1 amine or outer side, 2 acyl side, 3 side chain; linkers in the order of their positions; H or OH if unused. Positions of bridges follow the written chain, without caps; N, C: chain ends. Residues, ends and D or L forms follow the SMILES beside them. *: point of attachment. 5FAM = O=C1OC2(c3ccc(O)cc3Oc3cc(O)ccc32)c2ccc(C(=O)*)cc21; mXylylene = c1cc(C[*:1])cc(C[*:2])c1

How the values were obtained:
β-catenin [1] = target: T1, β-catenin (Homo sapiens, UniProt P35222); assay: FP direct binding of FAM-labeled peptide 1 to GST-β-catenin; conditions: 10 nM peptide 1 with serial dilutions of GST-β-catenin, read-out: KD or IC50
T1 construct: cells harboring plasmid pGEX-β-catenin(133-665)52 were grown in LB medium; made in house; host or cells: E. coli BL21 (DE3)
T1 sequence (P35222 133-665): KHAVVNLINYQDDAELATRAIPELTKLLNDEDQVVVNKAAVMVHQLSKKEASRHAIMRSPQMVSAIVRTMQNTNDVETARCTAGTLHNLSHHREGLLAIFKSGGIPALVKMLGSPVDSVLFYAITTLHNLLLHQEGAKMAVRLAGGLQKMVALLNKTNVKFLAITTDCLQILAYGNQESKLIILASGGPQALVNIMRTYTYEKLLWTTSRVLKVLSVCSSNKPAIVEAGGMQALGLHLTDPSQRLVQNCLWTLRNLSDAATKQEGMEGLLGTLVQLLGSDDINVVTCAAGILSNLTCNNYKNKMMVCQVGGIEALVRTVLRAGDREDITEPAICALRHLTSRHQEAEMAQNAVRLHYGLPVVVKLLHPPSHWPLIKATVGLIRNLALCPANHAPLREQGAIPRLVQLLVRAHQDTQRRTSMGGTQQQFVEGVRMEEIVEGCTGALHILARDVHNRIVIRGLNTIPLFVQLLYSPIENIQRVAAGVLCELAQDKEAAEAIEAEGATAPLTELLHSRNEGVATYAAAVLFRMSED
Protocol: Protein-Ligand Binding Assays. Peptide 1: Binding affinity was determined using FP. Peptide 1 (10 nM) was added to serial dilutions of GST-β-catenin in 20 mM Tris, 300 mM NaCl, pH 8.8, 0.01% Triton-X100 as reported previously. 34 After 1 h, aliquots were transferred from the reaction mixtures into black-on-black 384-well non-binding plates (Greiner) and FP was measured using a Tecan Infinite M1000 Pro plate reader. The KD value was calculated using KaleidaGraph v. 3.6 using the equation below.
(§1) Protein Purification. For β-catenin, E. coli BL21 (DE3) cells harboring plasmid pGEX-β-catenin(133-665)52 were grown in LB medium supplemented with 50 mg/L ampicillin at 37° C. to an OD600 of 0.6 before induction with 0.2 mM IPTG overnight at 30° C. Cells were harvested by centrifugation and lysed in lysis buffer (20 mM Tris, pH 8.0, 150 mM NaCl, 2 mM DTT, 1% Triton-X100, 200 mM EDTA, 10 mg/mL PMSF, and 0.2 mg/mL lysozyme) on ice for 20 min, followed by sonication (8 s off, 2 s on, 1 min total, performed twice at 70% amplitude). The homogenate was centrifuged (13,000 g for 30 min at 4° C. and the clear supernatant was loaded onto an equilibrated glutathione-agarose column. After exhaustive washing with wash buffer (20 mM Tris, pH 7.4, 150 mM NaCl, 2 mM DTT), the bound GST-β-catenin was eluted with wash buffer supplemented with 10 mM glutathione, concentrated, and stored at −80° C. in 30% glycerol.

β-catenin [2] = target: T1, β-catenin; assay: FP-based competition assay for binding to β-catenin; conditions: IC50; competition with FAM-labeled peptide 1 (10 nM), 50 nM GST-β-catenin; read-out: KD or IC50
Protocol: Samples were transferred into black-on-black 384-well non-binding microplates (Greiner) and FP was measured using a Tecan M1000 Infinite plate reader. The data were analyzed using GraphPad Prism v. 8.0 and normalized to FP values corresponding to fully bound/unbound probe. All binding values reported are the mean±SD of independent experiments.
as §1, with “For β-catenin, E. coli BL21 (DE3) cells harboring plasmid pGEX-β-catenin(133-665)52 were grown in LB medium supplemented with 50 mg/L ampicillin at 37° C. to an OD600 of 0.6 before induction with 0.2 mM IPTG overnight at 30° C.” left out

Human serum stability = assay type: in vitro ADME; conditions: human, human serum diluted 1:4 in DPBS, human serum; read-out: serum t1/2 (converted)
Protocol: Human Serum Stability. […] After protein precipitation was complete, each aliquot was centrifuged (15000 g, 5 min, 4° C.) and analyzed by RP-HPLC. The percentage of remaining peptide at a given time point was determined by integrating the peak area and compared it to that of the untreated control (100%).

GST-β-catenin, P35222 = target: T2, GST-β-catenin, P35222; assay: fluorescence polarization; 10 nM FAM-peptide 1 against serial dilutions of GST-β-catenin
T2 chain: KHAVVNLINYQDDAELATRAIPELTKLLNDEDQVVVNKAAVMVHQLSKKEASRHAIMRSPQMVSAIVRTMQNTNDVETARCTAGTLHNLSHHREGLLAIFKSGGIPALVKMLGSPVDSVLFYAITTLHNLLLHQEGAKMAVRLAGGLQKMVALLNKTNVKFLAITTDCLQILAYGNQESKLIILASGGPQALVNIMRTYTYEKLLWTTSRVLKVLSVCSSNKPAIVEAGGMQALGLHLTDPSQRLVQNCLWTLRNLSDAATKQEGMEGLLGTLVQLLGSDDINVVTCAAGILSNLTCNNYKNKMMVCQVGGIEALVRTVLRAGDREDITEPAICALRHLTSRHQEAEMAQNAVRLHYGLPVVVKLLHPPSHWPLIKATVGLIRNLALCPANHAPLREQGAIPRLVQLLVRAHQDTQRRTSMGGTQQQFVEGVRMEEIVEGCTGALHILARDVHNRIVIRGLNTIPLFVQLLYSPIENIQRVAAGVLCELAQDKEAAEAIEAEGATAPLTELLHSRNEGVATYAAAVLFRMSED

**Q.** Which Kd (β-catenin [1]) does the source give for CC[C@H](C)[C@@H]1NC(=O)[C@@H](NC(=O)[C@H](CCC(=O)O)NC(=O)[C@@H]2CCCN2C(=O)[C@H](Cc2ccc(O)cc2)NC(=O)CNC(=O)CNC(=O)c2ccc3c(c2)C(=O)OC32c3ccc(O)cc3Oc3cc(O)ccc32)CSCc2cccc(c2)CSC[C@@H](C(=O)N[C@@H](Cc2c[nH]cn2)C(=O)N[C@@H](CC(C)C)C(=O)N[C@@H](CCC(N)=O)C(=O)N[C@@H](CCCNC(=N)N)C(=O)N[C@H](C(=O)N[C@H](C(=O)N[C@@H](CC(C)C)C(N)=O)[C@@H](C)CC)C(C)C)NC(=O)[C@H](CC(=O)O)NC(=O)[C@H](CC(C)C)NC1=O [peptide 1] (5FAM-GGYPECILDCHLQRVIL-NH2; linker 6-10 via mXylylene) here?
**A.** 18 nM

**Q.** Which IC50 (β-catenin [2]) does the source give for CC[C@H](C)[C@@H]1NC(=O)[C@@H](NC(=O)[C@H](CCC(=O)O)NC(=O)[C@@H]2CCCN2C(=O)[C@H](Cc2ccc(O)cc2)NC(=O)CNC(=O)CNC(C)=O)CC(=O)NCCCC[C@@H](C(=O)N[C@@H](Cc2c[nH]cn2)C(=O)N[C@@H](CC(C)C)C(=O)N[C@@H](CCC(N)=O)C(=O)N[C@@H](CCCNC(=N)N)C(=O)N[C@H](C(=O)N[C@H](C(=O)N[C@@H](CC(C)C)C(=O)NCCC(N)=O)[C@@H](C)CC)C(C)(C)C)NC(=O)[C@H](CC(=O)O)NC(=O)[C@H](CC(C)C)NC1=O [Peptide 9, Ac-GGYPEDILDKHLQRZIL(β-Ala)-NH2] here?
**A.** 305 ± 19 nM

**Q.** And the half-life at 100 μM (Human serum stability)?
**A.** ~12 h

**Q.** Which Kd (GST-β-catenin, P35222) does the source give for GGYPECILDCHLQRVIL (modifications not checked) [peptide 1] here?
**A.** 18 nM
